We go through nine compounds from US12421253B2 (Mirati Therapeutics, Inc., priority 2020, dated 2025).

In one assay the target is T1, KRas^G12D (Homo sapiens, UniProt P01116, G12D).
T1 construct: […]; biotin (biotinylated); purchased Accelegan Inc
Nature of the assay: KRas binding assay (TR-FRET displacement of Cy5 labelled tracer).

Another assay addresses T2, KRas^G12R (Homo sapiens, UniProt P01116, G12R).
T2 construct: […]; biotin (biotinylated); purchased Accelegan Inc
The description is as above.

Another assay relates to H460 cells, pERK. Nature of the assay: Inhibition of KRas phosphorylation of ERK (Cisbio HTRF Advanced pERK assay). The class given is cell-based. Particulars: Homo sapiens, NCI-H460, 3 hrs, read-out: Inhibition (HTRF IC50 nM) of KRas-mediated Phosphorylation of ERK, H460. A digest of the protocol: (§1)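 pERK measured by HTRF in lysates from cells treated 3 h with compound, 10 uM top, 3-fold steps, 10 doses, 0.8% DMSO final. Cells (6,000/well, RPMI 10% FBS) had been plated overnight at 37 °C; 0.2 uM trametinib defined minimum signal; antibody detection 2 h at room temperature.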

The next assay relates to H727 cells, pERK. The description is as above. Particulars: Homo sapiens, NCI-H727, 3 h, read-out: Inhibition (HTRF IC50 nM) of KRas-mediated Phosphorylation of ERK, H727. Type of assay: cell-based. The method, boiled down: as §1
The test system of the next assay is H358 cells, pERK. Described as above. Type of assay: cell-based. Particulars: Homo sapiens, NCI-H358, 3 hrs, read-out: Inhibition (HTRF IC50 nM) of KRas-mediated Phosphorylation of ERK, H358. The method, boiled down:
as §1

A further assay concerns MKN1 cells, pERK. The assay is described as above. Type of assay: cell-based. Particulars: Homo sapiens, MKN-1, 3 h, read-out: Inhibition (HTRF IC50 nM) of KRas-mediated Phosphorylation of ERK, MKN1. The method, boiled down: as §1
The test system of the next assay is HCT116 cells, pERK. Described as above. Type of assay: cell-based. To be noted: Homo sapiens, HCT-116, 3 hrs, read-out: Inhibition (HTRF IC50 nM) of KRas-mediated Phosphorylation of ERK, HCT116. A digest of the protocol:
as §1

Another assay concerns ASPC1 cells, pERK. The assay is described as above. The class given is cell-based. Particulars: Homo sapiens, ASPC1, 3 h, AsPC-1 cells, read-out: Inhibition (HTRF IC50 nM) of KRas-mediated Phosphorylation of ERK, AsPC-1. The method, boiled down:
as §1

In the next assay the test system is A549 cells, pERK. The description is as above. The class given is cell-based. To be noted: Homo sapiens, 3 hrs, read-out: Inhibition (HTRF IC50 nM) of KRas-mediated Phosphorylation of ERK, A549. A digest of the protocol:
as §1

The subject of a further assay is PSN1 cells, pERK. The description is as above. The class given is cell-based. Particulars: Homo sapiens, PSN1, 3 h, read-out: Inhibition (HTRF IC50 nM) of KRas-mediated Phosphorylation of ERK, PSN1. The method, boiled down: as §1
A further assay has as its target T3, KRas^G12V (Homo sapiens, UniProt P01116, G12V).
T3 construct: […]; biotin (biotinylated); purchased Accelegan Inc
Nature of the assay: KRas binding assay (TR-FRET displacement of Cy5 labelled tracer).

T1 sequence (P01116 1-169 isoform P01116-2 G12D): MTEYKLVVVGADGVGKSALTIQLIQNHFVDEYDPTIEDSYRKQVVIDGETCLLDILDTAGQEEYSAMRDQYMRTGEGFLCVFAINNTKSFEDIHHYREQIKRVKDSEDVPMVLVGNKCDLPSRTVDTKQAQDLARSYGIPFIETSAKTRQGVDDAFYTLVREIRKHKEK
T3 sequence (P01116 1-169 isoform P01116-2 G12V): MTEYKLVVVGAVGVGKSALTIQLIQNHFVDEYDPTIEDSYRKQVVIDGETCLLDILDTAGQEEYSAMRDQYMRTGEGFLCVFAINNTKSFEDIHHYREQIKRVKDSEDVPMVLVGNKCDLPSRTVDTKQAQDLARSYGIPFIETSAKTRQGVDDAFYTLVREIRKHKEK
T2 sequence (P01116 1-169 isoform P01116-2 G12R): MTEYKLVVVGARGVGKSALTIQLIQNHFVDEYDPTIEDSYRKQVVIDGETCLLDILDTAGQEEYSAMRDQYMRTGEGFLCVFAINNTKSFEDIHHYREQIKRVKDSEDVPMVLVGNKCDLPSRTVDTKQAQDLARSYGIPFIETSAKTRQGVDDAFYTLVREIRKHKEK
Protocol for KRas^G12D: (§2) The ability of a compound to bind to KRas was measured using a TR-FRET displacement assay. […] After a 60-minute incubation at room temperature, the reaction was measured using a BMG LABTECH CLARIO star Plus via TR-FRET. […] The POC values were fit to a 4-parameter IC50 equation and the IC50 value reported.
Protocol for KRas^G12R: as §2
Protocol for KRas^G12V: as §2

On to `CCc1c(F)ccc2cc(O)cc(N3CCc4c(nc(OC[C@@]56CCCN5C[C@H](F)C6)nc4N4CCCC5(CNC(=O)N5)C4)C3)c12` (stereo partly drawn) [Example 62, 7-(7-(8-ethyl-7-fluoro-3-hydroxynaphthalen-1-yl)-2-(((2R,7aS)-2-fluorohexahydro-1H-pyrrolizin-7a-yl)methoxy)-5,6,7,8-tetrahydropyrido[3,4-d]pyrimidin-4-yl)-1,3,7-triazaspiro[4.5]decan-2-one], for which the IC50 on KRas^G12D is at most 2 nM; on KRas^G12R, at most 2 nM; in the assay with H460 cells, pERK, 69 nM; in the assay with H727 cells, pERK, 81 nM; in the assay on H358 cells, pERK, 11 nM; in the assay with MKN1 cells, pERK it was 4 nM. Moreover, the IC50 with HCT116 cells, pERK is 125 nM; in the assay with ASPC1 cells, pERK, 15 nM; with A549 cells, pERK, 25 nM; with PSN1 cells, pERK, 325 nM; at KRas^G12V, at most 2 nM.
Turning to `CCc1c(F)ccc2cc(O)cc(N3CCc4c(nc(OC[C@@]56CCCN5C[C@H](F)C6)nc4N4CCCn5nc(C(=O)N(C)C)cc5C4)C3)c12` [Example 66, 5-(7-(8-ethyl-7-fluoro-3-hydroxynaphthalen-1-yl)-2-(((2R,7aS)-2-fluorohexahydro-1H-pyrrolizin-7a-yl)methoxy)-5,6,7,8-tetrahydropyrido[3,4-d]pyrimidin-4-yl)-N,N-dimethyl-5,6,7,8-tetrahydro-4H-pyrazolo[1,5-a][1,4]diazepine-2-carboxamide], the IC50 on KRas^G12D was at most 2 nM; on KRas^G12R it was at most 2 nM; in the assay on H460 cells, pERK, 36 nM; with H727 cells, pERK, 5 nM; in the assay on H358 cells, pERK, 2 nM; with MKN1 cells, pERK it was 1 nM. The IC50 in the assay with HCT116 cells, pERK is 62 nM; in the assay on ASPC1 cells, pERK it was 1 nM; with A549 cells, pERK, 5 nM; on KRas^G12V it was at most 2 nM.
Regarding `O=S1(=O)NCC2(CCCN(c3nc(OC[C@@]45CCCN4C[C@H](F)C5)nc4c3CCN(c3cc(O)cc5ccc(F)c(Cl)c35)C4)C2)N1` (stereo partly drawn) [Example 72, 7-(7-(8-chloro-7-fluoro-3-hydroxynaphthalen-1-yl)-2-(((2R,7aS)-2-fluorohexahydro-1H-pyrrolizin-7a-yl)methoxy)-5,6,7,8-tetrahydropyrido[3,4-d]pyrimidin-4-yl)-2-thia-1,3,7-triazaspiro[4.5]decane 2,2-dioxide], the IC50 is at most 2 nM at KRas^G12D; at most 2 nM on KRas^G12R; 59 nM in the assay with H460 cells, pERK; 59 nM in the assay on H727 cells, pERK; 8 nM in the assay on H358 cells, pERK; 7 nM in the assay with MKN1 cells, pERK. The IC50 in the assay on HCT116 cells, pERK is 126 nM; in the assay with ASPC1 cells, pERK, 10 nM; in the assay with A549 cells, pERK, 32 nM; with PSN1 cells, pERK it was 148 nM; at KRas^G12V it was at most 2 nM.
For the compound `CCc1c(F)ccc2cc(O)cc(N3CCc4c(nc(OCC56CCCN5CCC6)nc4N4CCCn5nc(C(=O)N(C)C)cc5C4)C3)c12` [Example 175, 5-[7-(8-ethyl-7-fluoro-3-hydroxy-1-naphthyl)-2-(1,2,3,5,6,7-hexahydropyrrolizin-8-ylmethoxy)-6,8-dihydro-5H-pyrido[3,4-d]pyrimidin-4-yl]-N,N-dimethyl-4,6,7,8-tetrahydropyrazolo[1,5-a][1,4]diazepine-2-carboxamide], the IC50 at KRas^G12D was at most 2 nM; at KRas^G12R, at most 2 nM; in the assay on H460 cells, pERK, 750 nM; in the assay on H727 cells, pERK, 85 nM; in the assay with H358 cells, pERK it was 50 nM; in the assay on MKN1 cells, pERK it was 58 nM. The half-inhibitory concentration (IC50) with HCT116 cells, pERK was 1120 nM; with ASPC1 cells, pERK, 53 nM; with A549 cells, pERK it was 326 nM; with PSN1 cells, pERK, 7860 nM; at KRas^G12V, at most 2 nM.
For the compound `CCc1c(F)ccc2cc(O)cc(N3CCc4c(nc(OC[C@@]56CCCN5C[C@H](F)C6)nc4N4CCC[C@]5(C4)NC(=O)NC5=O)C3)c12` [Example 196, (R)-7-(7-(8-ethyl-7-fluoro-3-hydroxynaphthalen-1-yl)-2-(((2R,7aS)-2-fluorohexahydro-1H-pyrrolizin-7a-yl)methoxy)-5,6,7,8-tetrahydropyrido[3,4-d]pyrimidin-4-yl)-1,3,7-triazaspiro[4.5]decane-2,4-dione], the IC50 on KRas^G12D is at most 2 nM; on KRas^G12R it was at most 2 nM; in the assay with H460 cells, pERK, 2 nM; in the assay with H727 cells, pERK it was 11 nM; in the assay with H358 cells, pERK, 1 nM; in the assay on MKN1 cells, pERK, 5 nM. The IC50 is 5 nM in the assay with HCT116 cells, pERK; 6 nM with ASPC1 cells, pERK; 2 nM in the assay on A549 cells, pERK; 18 nM in the assay on PSN1 cells, pERK; at most 2 nM on KRas^G12V.
As for `CCc1c(F)ccc2cc(O)cc(N3CCc4c(nc(OCC5(CN(C)C)CC5)nc4N4CCC[C@@](C)(O)C4)C3)c12` [Example 199, (R)-1-(2-((1-((dimethylamino)methyl)cyclopropyl)methoxy)-7-(8-ethyl-7-fluoro-3-hydroxynaphthalen-1-yl)-5,6,7,8-tetrahydropyrido[3,4-d]pyrimidin-4-yl)-3-methylpiperidin-3-ol], the IC50 is at most 2 nM at KRas^G12D; at most 2 nM at KRas^G12R; 242 nM with H460 cells, pERK; 262 nM in the assay on H727 cells, pERK; 65 nM in the assay with H358 cells, pERK; 31 nM in the assay on MKN1 cells, pERK. For the same compound, the IC50 in the assay on HCT116 cells, pERK is 441 nM; with ASPC1 cells, pERK it was 43 nM; in the assay on A549 cells, pERK, 201 nM; in the assay with PSN1 cells, pERK it was 2500 nM; on KRas^G12V it was at most 2 nM.
For `CCc1c(F)ccc2cc(O)cc(N3CCc4c(nc(OCC5(CN(C)C)CC5)nc4N4C[C@@H]5C(=O)NC(=O)[C@@H]5C4)C3)c12` [Example 200, (3aS,6aR)-5-[2-[[1-[(dimethylamino)methyl]cyclopropyl]methoxy]-7-(8-ethyl-7-fluoro-3-hydroxy-1-naphthyl)-6,8-dihydro-5H-pyrido[3,4-d]pyrimidin-4-yl]-3a,4,6,6a-tetrahydropyrrolo[3,4-c]pyrrole-1,3-dione], the IC50 was at most 2 nM on KRas^G12D; at most 2 nM on KRas^G12R; 578 nM with H460 cells, pERK; 264 nM in the assay with H727 cells, pERK; 77 nM in the assay with H358 cells, pERK; 27 nM in the assay with MKN1 cells, pERK. Besides, the IC50 is 832 nM in the assay on HCT116 cells, pERK; 62 nM with ASPC1 cells, pERK; 142 nM with A549 cells, pERK; 9110 nM in the assay on PSN1 cells, pERK; at most 2 nM on KRas^G12V.
As to `CCc1c(F)ccc2cc(O)cc(N3CCc4c(nc(OCC5(CN(C)C)CC5)nc4N4CCCC5(C4)NC(=O)NC5=O)C3)c12` (centres unmarked) [Example 201, 7-(2-((1-((dimethylamino)methyl)cyclopropyl)methoxy)-7-(8-ethyl-7-fluoro-3-hydroxynaphthalen-1-yl)-5,6,7,8-tetrahydropyrido[3,4-d]pyrimidin-4-yl)-1,3,7-triazaspiro[4.5]decane-2,4-dione], the IC50 on KRas^G12D is at most 2 nM; at KRas^G12R, 4 nM; in the assay with H460 cells, pERK it was 26 nM; in the assay on H727 cells, pERK, 176 nM; with H358 cells, pERK, 12 nM; with MKN1 cells, pERK, 49 nM. Also, the IC50 is 49 nM with HCT116 cells, pERK; 49 nM in the assay on ASPC1 cells, pERK; 14 nM in the assay with A549 cells, pERK; 80.5 nM in the assay on PSN1 cells, pERK; at most 2 nM on KRas^G12V.
With `O=C1NCC2(CCCN(c3nc(OC[C@@]45CCCN4C[C@H](F)C5)nc4c3CCN(c3cc(O)cc5ccc(F)c(Br)c35)C4)C2)N1` (stereo partly drawn) [Example 216, 7-(7-(8-bromo-7-fluoro-3-hydroxynaphthalen-1-yl)-2-(((2R,7aS)-2-fluorohexahydro-1H-pyrrolizin-7a-yl)methoxy)-5,6,7,8-tetrahydropyrido[3,4-d]pyrimidin-4-yl)-1,3,7-triazaspiro[4.5]decan-2-one], the IC50 at KRas^G12D is at most 2 nM; at KRas^G12R it was 3 nM; in the assay on H460 cells, pERK it was 293 nM; in the assay with H727 cells, pERK, 300 nM; in the assay on H358 cells, pERK, 27 nM; in the assay on MKN1 cells, pERK, 19 nM. The IC50 was 531 nM in the assay with HCT116 cells, pERK; 92 nM with ASPC1 cells, pERK; 206 nM with A549 cells, pERK; 1260 nM in the assay with PSN1 cells, pERK; at most 2 nM on KRas^G12V.
